As usually defined, the Ki is a dissociation constant, usually derived from enzyme kinetics or from competition with a known ligand. One may read the IC50 as the point on the concentration scale where inhibition reaches its midpoint. Read a low IC50 as higher potency.

Data on two molecules can be found in patent US7375229B2, “Dihydro-dibenzo[B,E]oxepine based selective estrogen receptor modulators, compositions and methods” (Eli Lilly and Company, priority 2002, dated 2008).

For one experiment, the target named is T1, ERAlpha receptor (Homo sapiens, UniProt P03372).
T1 construct: purchased PanVera
T1 sequence (P03372 1-595): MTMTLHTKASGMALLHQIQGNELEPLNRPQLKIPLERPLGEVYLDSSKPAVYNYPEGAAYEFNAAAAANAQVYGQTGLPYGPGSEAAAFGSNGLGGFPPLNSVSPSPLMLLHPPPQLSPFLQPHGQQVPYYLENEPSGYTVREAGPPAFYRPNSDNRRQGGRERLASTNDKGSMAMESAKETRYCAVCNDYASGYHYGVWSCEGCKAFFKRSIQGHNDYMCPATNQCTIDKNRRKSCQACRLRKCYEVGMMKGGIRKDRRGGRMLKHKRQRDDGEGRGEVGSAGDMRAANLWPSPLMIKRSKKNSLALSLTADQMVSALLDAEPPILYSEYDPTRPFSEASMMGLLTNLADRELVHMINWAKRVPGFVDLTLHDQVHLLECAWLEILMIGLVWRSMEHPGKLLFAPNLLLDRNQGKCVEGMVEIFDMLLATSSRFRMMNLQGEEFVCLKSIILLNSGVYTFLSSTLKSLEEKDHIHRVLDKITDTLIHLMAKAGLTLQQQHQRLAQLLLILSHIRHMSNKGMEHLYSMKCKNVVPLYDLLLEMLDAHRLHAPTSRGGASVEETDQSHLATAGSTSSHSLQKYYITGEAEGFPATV
As to the kind of experiment: Competition binding assay with 3H-Estradiol, ERAlpha receptor. As to conditions: IC50 converted to Ki using Cheng-Prusoff equation; 3H-Estradiol competition; read-out: ER binding Ki (ERα). The procedure: (§1) Competition binding assay is run in a buffer containing 50 mM Hepes, pH 7.5, 1.5 mM EDTA, 150 mM NaCl, 10% glycerol, 1 mg/ml ovalbumin and 5 mM DTT, using 0.025 μCi per well ^3H-Estradiol (NEN #NET517 at 118 Ci/mmol, 1 mCi/ml), 10 ng/well ERAlpha or ERbeta receptor (PanVera). Competing compounds are added at 10 different concentrations. Non-specific binding is determined in the presence of 1 μM of 17-B Estradiol. The binding reaction (140 μl) is incubated for 4 hours at room temperature, then 70 μl of cold DCC buffer is added to each reaction (DCC buffer contains per 50 ml of assay buffer, 0.75 g of charcoal (Sigma) and 0.25 g of dextran (Pharmacia)). Plates are mixed 8 minutes on an orbital shaker at 4° C. Plates are then centrifuged at 3,000 rpm at 4° C. for 10 minutes. An aliquot of 120 μl of the mix is transferred to another 96-well, white flat bottom plate (Costar) and […] of Wallac Optiphase “Hisafe 3” scintillation fluid is added to each well. Plates are sealed and shaken vigorously on an orbital shaker. After an incubation of 2.5 hrs, read plates in a Wallac Microbeta counter. The data is used to calculate an IC50 and % Inhibition at 10 μM. The Kd for ^3H-Estradiol is determined by saturation binding to ER alpha and ER beta receptors. The IC50 values for compounds are converted to Ki using Cheng-Prusoff equation and the Kd determined by saturation binding assay.

Another experiment has as its target T2, ERbeta receptor (Homo sapiens, UniProt Q92731).
T2 construct: purchased PanVera
As to the kind of experiment: Competition binding assay with 3H-Estradiol, ERbeta receptor. The note with it: IC50 converted to Ki using Cheng-Prusoff equation; 3H-Estradiol competition; read-out: ER binding Ki (ERβ). How it is done:
as §1

Experiment [1] deals with MCF-7 breast adenocarcinoma cells. As to the kind of experiment: MCF-7 proliferation assay (14C-thymidine), antagonist mode. The note with it: Homo sapiens, MCF7, with 10 pM E2. It is filed as cell-based. The procedure:
MCF-7 breast adenocarcinoma cells (ATCC HTB 22) are maintained in MEM (minimal essential medium, phenol red-free, Gibco BRL) supplemented with 10% fetal bovine serum (FBS) (V/V), L-glutamine (2 mM), sodium pyruvate (1 mM), HEPES ((N-[2-hydroxyethyl]piperazine-N′-[2-ethanesulfonic acid] 10 mM}, non-essential amino acids (0.1 mM) and Penicillin Streptomycin (1×). Seven days prior to assay, MCF-7 cells are switched to assay media which is the same as maintenance medium except supplemented with 10% dextran-coated charcoal-stripped fetal bovine serum (DCC-FBS) assay medium in place of 10% FBS. MCF-7 cells are removed from flasks using 10× Trypsin EDTA (phenol red free, Gibco BRL) and diluted to 1× in (Ca++/Mg++ free HBSS (phenol red-free). Cells are adjusted to 80,000 cells/ml in assay medium. […] For each of the agonist plates, a basal level (media) and a maximum stimulated level (with 1 μM E2) is determined. For each of the antagonist plates, a basal level (media) and a E2 (10 pM) alone control is determined. […] The plates are incubated overnight in the same incubator and then counted on the Wallac Microbeta counter. […] For the agonist mode, an EC50 and percent of maximum E2 stimulation and concentration of maximum stimulation is calculated.

Experiment [2] relates to Ishikawa human endometrial tumor cells. The experiment can be described thus: Ishikawa cell assay (PNPP readout), agonist and antagonist modes. Type of experiment: cell-based. As to conditions: for IC50: Homo sapiens, Ishikawa, antagonist mode, with 1 nM E2; for Ishikawa Agonist % Eff: agonist mode, % efficacy versus the response to Tamoxifen. The text has this: Ishikawa human endometrial tumor cells are maintained in MEM (minimum essential medium, with Earle's salts and L-Glutamine, Gibco BRL, Gaithersburg, Md.), supplemented with 10% fetal bovine serum (FBS) (V/V), (Gibco BRL). One day prior to assay, growth media is changed to assay medium, DMEM/F-12 (3:1) (Dulbecco's Modified Eagle Medium: Nutrient Mixture F-12, 3:1 Mixture, phenol red-free, Gibco BRL) supplemented with 5% dextran coated charcoal stripped fetal bovine serum (DCC-FBS) (Hyclone, Logen, Utah), L-Glutamine (2 mM), MEM sodium pyruvate (1 mM), HEPES (N-[2-hydroxyethyl]piperazine-N′-[2-ethanesulfonic acid] 2 mM) all from Gibco BRL). After an overnight incubation, ishikawa cells are rinsed with Dulbecco's Phosphate Buffered Saline (1×) (D-PBS) without Ca^+2 and Mg^+2 (Gibco BRL), and trypsinized by a 3 minute incubation with 0.25% Trypsin/EDTA, phenol red-free (Gibco BRL). Cells are resuspended in assay medium and adjusted to 250,000 cells/ml. Approximately 25,000 cells in a 100 ul media are added to flat-bottom 96 wells microculture plates (Costar 3596) and incubated at 37° C. in a 5% CO2 humidified incubator for 24 hours. The next day, serial dilutions of compounds are prepared in assay medium (at 6 times the finial concentration in the assay). The assay is run in dual mode, agonist and antagonist modes. For the agonist mode, plates receive 25 μl/well of assay medium followed by 25 μl/well of diluted compounds (at 6× the final concentrations). For the antagonist mode, plates receive 25 µl/well of 6 nM E2 (β-Estradiol, Sigma, St. Louis, Mo.) followed by 25 μl/well of diluted compounds (at 6× the final concentrations). After an additional 48-hour incubation at 37° C. in a 5% CO2 humidified incubator, media is aspirated from wells and 100 μl fresh assay medium is added to each microculture. Serial dilutions of compounds are prepared and added to the cells as described above. After an additional 72 hour incubation at 37° C. in a 5% CO2 humidified incubator, the assay is quenched by removing media and rinsing plates twice in Dulbecco's Phosphate Buffered Saline (1×) (D-PBS) (Gibco BRL). The plates are dried for 5 min and frozen at −70° C. for at least 1 hour. The plates are then removed from the freezer and allowed to thaw at room temperature. To each well, 100 μl of 1-Step™ PNPP (Pierce Chemical Company, Rockford, Ill.) is added. After a 20-minute incubation, plates are read on a spectophotometer at 405 nm. The data is fitted to a linear interpolation to derive EC50 (for agonist mode) or IC50 (for antagonist mode) values. For the agonist mode, a % efficacy for each compound is calculated versus the response to Tamoxifen. For the antagonist mode, a % efficacy for each compound is calculated versus E2 (1 nM) alone.

T2 sequence (Q92731 whole entry): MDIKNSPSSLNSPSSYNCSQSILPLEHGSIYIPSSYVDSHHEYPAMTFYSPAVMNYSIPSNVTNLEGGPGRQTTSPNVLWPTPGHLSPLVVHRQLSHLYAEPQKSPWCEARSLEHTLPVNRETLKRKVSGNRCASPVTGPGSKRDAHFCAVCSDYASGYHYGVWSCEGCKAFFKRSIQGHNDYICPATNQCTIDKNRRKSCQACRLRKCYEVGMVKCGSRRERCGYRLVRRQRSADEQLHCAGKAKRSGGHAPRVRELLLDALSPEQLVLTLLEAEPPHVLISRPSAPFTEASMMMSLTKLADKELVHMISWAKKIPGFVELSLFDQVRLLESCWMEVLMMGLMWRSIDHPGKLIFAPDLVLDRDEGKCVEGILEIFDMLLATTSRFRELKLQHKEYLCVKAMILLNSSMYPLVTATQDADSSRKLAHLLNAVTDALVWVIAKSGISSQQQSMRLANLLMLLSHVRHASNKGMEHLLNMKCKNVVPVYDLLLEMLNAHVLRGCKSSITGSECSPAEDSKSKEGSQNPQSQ

As for `Oc1ccc2c3c(sc2c1)Cc1ccccc1OC3c1ccc(OCCN2CCCCC2)cc1` (stereo not shown) [Example 1, 5-[4-(2-Piperidin-1-yl-ethoxy)-phenyl]-5,11-dihydro-6-oxa-12-thia-dibenzo[a,f]azulen-2-ol], the inhibitory constant (Ki) on ERAlpha receptor and at ERbeta receptor was 1 nM throughout. In addition, the figures for the IC50 in experiment [1] and in experiment [2] were 8 nM and 19 nM, respectively. In experiment [2], the “Ishikawa Agonist % Eff” value is reported as 4%.
With `Oc1ccc2c3c(ccc2c1)Cc1ccccc1OC3c1ccc(OCCN2CCCCC2)cc1` (stereo not shown) [Example 2, 13-[4-(2-Piperidin-1-yl-ethoxy)-phenyl]-7,13-dihydro-12-oxa-benzo[4,5]cyclohepta[1,2-a]naphthalen-3-ol], the results for the inhibitory constant (Ki) on ERAlpha receptor and on ERbeta receptor were 2 nM and 3 nM, respectively. Besides, the results for the 50% inhibitory concentration (IC50) in experiment [1] and in experiment [2] were 10 nM and 454 nM, respectively. For the same molecule, the “Ishikawa Agonist % Eff” value in experiment [2] is reported as 24%.
